Laboratory results taken from ChEMBL document CHEMBL1138397, “New C25 carbamate rifamycin derivatives are resistant to inactivation by ADP-ribosyl transferases” (2007).
≈ marks a conversion by molar mass, not a printed value.

Assays:
Staphylococcus aureus [1] = assay: Antimicrobial activity against rifampin-resistant Staphylococcus aureus ATCC 29213 rpoB (His481Tyr) mutant; type: functional
Escherichia coli [2] = assay: Ratio of MIC for Arr-2 positive Escherichia coli CGSC 5163 lpxC101 mutant bearing pCTV104 to MIC for Arr-2 negative Escherichia coli CGSC 5163 lpxC101 mutant bearing pCTV104P; type: functional
[3] = system: Mycolicibacterium smegmatis; assay: Ratio of MIC for Arr-1 positive Mycobacterium smegmatis DSM 43756 to MIC for Arr-1 negative Mycobacterium smegmatis DSM 43756Kml; type: functional
[4] = system: Mycolicibacterium smegmatis; assay: Antimicrobial activity against Arr-1 negative Mycobacterium smegmatis DSM 43756Kml; type: functional
Staphylococcus aureus [5] = assay: Antimicrobial activity against rifampin-sensitive Staphylococcus aureus ATCC 29213; type: functional
Escherichia coli [6] = assay: Antimicrobial activity against Arr-2 positive Escherichia coli CGSC 5163 lpxC101 mutant bearing pCTV104; type: functional
Escherichia coli [7] = assay: Ratio of MIC for Arr-2 positive Escherichia coli DH5-alpha bearing pCTF104 to MIC for Arr-2 negative Escherichia coli DH5-alpha bearing pCTF104P; type: functional, DH5alpha
Escherichia coli [8] = assay: Antimicrobial activity against Arr-2 negative Escherichia coli DH5alpha bearing pCTF104P; type: functional
Escherichia coli [9] = assay: Antimicrobial activity against Arr-2 positive Escherichia coli DH5-alpha bearing pCTF104; type: functional; settings: DH5alpha
[10] = system: Mycolicibacterium smegmatis; assay: Antimicrobial activity against Arr-1 positive Mycobacterium smegmatis DSM 43756; type: functional
Escherichia coli [11] = assay: Antimicrobial activity against Arr-2 negative Escherichia coli CGSC 5163 lpxC101 mutant bearing pCTV104P; type: functional

CO[C@H]1/C=C/O[C@@]2(C)Oc3c(C)c(O)c4c(c3C2=O)C(=O)C(N2CCOCC2)=C(NC(=O)/C(C)=C\C=C\[C@H](C)[C@H](O)[C@@H](C)[C@@H](O)[C@@H](C)[C@H](OC(=O)N2CCC(NCc3ccccc3)CC2)[C@@H]1C)C4=O
MIC (Staphylococcus aureus [1]): > 63 µg/mL | Ratio (Escherichia coli [2]): 1 | Ratio [3]: 1 | MIC [4]: 0.12 µg/mL (≈ 0.126 µM) | MIC (Staphylococcus aureus [5]): 0.03 µg/mL (≈ 0.0314 µM) | MIC (Escherichia coli [6]): 0.24 µg/mL (≈ 0.251 µM) | Ratio (Escherichia coli [7]): 2 | MIC (Escherichia coli [8]): 8 µg/mL (≈ 8.38 µM) | MIC (Escherichia coli [9]): 16 µg/mL (≈ 16.8 µM) | MIC [10]: 0.12 µg/mL (≈ 0.126 µM) | MIC (Escherichia coli [11]): 0.24 µg/mL (≈ 0.251 µM)

CO[C@H]1/C=C/O[C@@]2(C)Oc3c(C)c(O)c4c(c3C2=O)C(=O)C(N2CCOCC2)=C(NC(=O)/C(C)=C\C=C\[C@H](C)[C@H](O)[C@@H](C)[C@@H](O)[C@@H](C)[C@H](OC(=O)NCCO)[C@@H]1C)C4=O
MIC (Staphylococcus aureus [1]): 16 µg/mL (≈ 19.4 µM) | Ratio (Escherichia coli [2]): 16 | Ratio [3]: 4 | MIC [4]: 2 µg/mL (≈ 2.42 µM) | MIC (Staphylococcus aureus [5]): 0.016 µg/mL (≈ 0.0194 µM) | MIC (Escherichia coli [6]): 8 µg/mL (≈ 9.69 µM) | Ratio (Escherichia coli [7]): >32 | MIC (Escherichia coli [8]): 8 µg/mL (≈ 9.69 µM) | MIC (Escherichia coli [9]): > 250 µg/mL | MIC [10]: 8 µg/mL (≈ 9.69 µM) | MIC (Escherichia coli [11]): 0.5 µg/mL (≈ 0.605 µM)

CO[C@H]1/C=C/O[C@@]2(C)Oc3c(C)c(O)c4c(c3C2=O)C(=O)C(N2CCOCC2)=C(NC(=O)/C(C)=C\C=C\[C@H](C)[C@H](O)[C@@H](C)[C@@H](O)[C@@H](C)[C@H](OC(=O)NCc2ccc(C(F)(F)F)cc2)[C@@H]1C)C4=O
Ratio (Escherichia coli [2]): 2 | Ratio [3]: >4 | MIC [4]: ≤ 0.03 µg/mL | MIC (Staphylococcus aureus [5]): 0.03 µg/mL (≈ 0.0319 µM) | MIC (Escherichia coli [6]): 1 µg/mL (≈ 1.06 µM) | MIC (Escherichia coli [8]): > 250 µg/mL | MIC (Escherichia coli [9]): > 250 µg/mL | MIC [10]: 0.12 µg/mL (≈ 0.128 µM) | MIC (Escherichia coli [11]): 0.5 µg/mL (≈ 0.532 µM)

COc1ccccc1-c1cc(CNC(=O)O[C@H]2[C@H](C)[C@H](O)[C@H](C)[C@@H](O)[C@@H](C)/C=C/C=C(/C)C(=O)NC3=C(N4CCOCC4)C(=O)c4c(c(O)c(C)c5c4C(=O)[C@@](C)(O/C=C/[C@H](OC)[C@H]2C)O5)C3=O)on1
Ratio (Escherichia coli [2]): 2 | Ratio [3]: 1 | MIC [4]: 0.12 µg/mL (≈ 0.124 µM) | MIC (Staphylococcus aureus [5]): 0.06 µg/mL (≈ 0.0619 µM) | MIC (Escherichia coli [6]): 2 µg/mL (≈ 2.06 µM) | MIC (Escherichia coli [8]): > 250 µg/mL | MIC (Escherichia coli [9]): > 250 µg/mL | MIC [10]: 0.12 µg/mL (≈ 0.124 µM) | MIC (Escherichia coli [11]): 1 µg/mL (≈ 1.03 µM)

CNC(=O)O[C@H]1[C@H](C)[C@H](O)[C@H](C)[C@@H](O)[C@@H](C)/C=C/C=C(/C)C(=O)NC2=C(N3CCOCC3)C(=O)c3c(c(O)c(C)c4c3C(=O)[C@@](C)(O/C=C/[C@H](OC)[C@H]1C)O4)C2=O
MIC (Staphylococcus aureus [1]): 4 µg/mL (≈ 5.03 µM) | Ratio (Escherichia coli [2]): 32 | Ratio [3]: 8 | MIC [4]: 0.5 µg/mL (≈ 0.628 µM) | MIC (Staphylococcus aureus [5]): 0.004 µg/mL (≈ 0.00503 µM) | MIC (Escherichia coli [6]): 16 µg/mL (≈ 20.1 µM) | Ratio (Escherichia coli [7]): >32 | MIC (Escherichia coli [8]): 8 µg/mL (≈ 10.1 µM) | MIC (Escherichia coli [9]): > 250 µg/mL | MIC [10]: 4 µg/mL (≈ 5.03 µM) | MIC (Escherichia coli [11]): 0.5 µg/mL (≈ 0.628 µM)

C=CCNC(=O)O[C@H]1[C@H](C)[C@H](O)[C@H](C)[C@@H](O)[C@@H](C)/C=C/C=C(/C)C(=O)NC2=C(N3CCOCC3)C(=O)c3c(c(O)c(C)c4c3C(=O)[C@@](C)(O/C=C/[C@H](OC)[C@H]1C)O4)C2=O
Ratio (Escherichia coli [2]): 16 | Ratio [3]: >32 | MIC [4]: 0.06 µg/mL (≈ 0.073 µM) | MIC (Staphylococcus aureus [5]): 0.004 µg/mL (≈ 0.00487 µM) | MIC (Escherichia coli [6]): 4 µg/mL (≈ 4.87 µM) | Ratio (Escherichia coli [7]): >32 | MIC (Escherichia coli [8]): 8 µg/mL (≈ 9.73 µM) | MIC (Escherichia coli [9]): > 250 µg/mL | MIC [10]: 2 µg/mL (≈ 2.43 µM) | MIC (Escherichia coli [11]): 0.24 µg/mL (≈ 0.292 µM)

CO[C@H]1/C=C/O[C@@]2(C)Oc3c(C)c(O)c4c(c3C2=O)C(=O)C(N2CCOCC2)=C(NC(=O)/C(C)=C\C=C\[C@H](C)[C@H](O)[C@@H](C)[C@@H](O)[C@@H](C)[C@H](OC(=O)NCc2ccc(N(C)C)cc2)[C@@H]1C)C4=O
MIC (Staphylococcus aureus [1]): > 63 µg/mL | Ratio (Escherichia coli [2]): 16 | Ratio [3]: 1 | MIC [4]: 0.06 µg/mL (≈ 0.0656 µM) | MIC (Staphylococcus aureus [5]): 0.06 µg/mL (≈ 0.0656 µM) | MIC (Escherichia coli [6]): 16 µg/mL (≈ 17.5 µM) | Ratio (Escherichia coli [7]): >4 | MIC (Escherichia coli [8]): 63 µg/mL (≈ 68.8 µM) | MIC (Escherichia coli [9]): > 250 µg/mL | MIC [10]: 0.06 µg/mL (≈ 0.0656 µM) | MIC (Escherichia coli [11]): 1 µg/mL (≈ 1.09 µM)

COc1ccc(CNC(=O)O[C@H]2[C@H](C)[C@H](O)[C@H](C)[C@@H](O)[C@@H](C)/C=C/C=C(/C)C(=O)NC3=C(N4CCOCC4)C(=O)c4c(c(O)c(C)c5c4C(=O)[C@@](C)(O/C=C/[C@H](OC)[C@H]2C)O5)C3=O)cc1
MIC (Staphylococcus aureus [1]): 4 µg/mL (≈ 4.43 µM) | Ratio (Escherichia coli [2]): 1 | Ratio [3]: 2 | MIC [4]: 0.03 µg/mL (≈ 0.0333 µM) | MIC (Staphylococcus aureus [5]): 0.016 µg/mL (≈ 0.0177 µM) | MIC (Escherichia coli [6]): 0.5 µg/mL (≈ 0.554 µM) | Ratio (Escherichia coli [7]): >16 | MIC (Escherichia coli [8]): 16 µg/mL (≈ 17.7 µM) | MIC (Escherichia coli [9]): > 250 µg/mL | MIC [10]: 0.06 µg/mL (≈ 0.0665 µM) | MIC (Escherichia coli [11]): 0.5 µg/mL (≈ 0.554 µM)

CO[C@H]1/C=C/O[C@@]2(C)Oc3c(C)c(O)c4c(c3C2=O)C(=O)C(N2CCOCC2)=C(NC(=O)/C(C)=C\C=C\[C@H](C)[C@H](O)[C@@H](C)[C@@H](O)[C@@H](C)[C@H](OC(=O)NCCN(C)C)[C@@H]1C)C4=O
MIC (Staphylococcus aureus [1]): > 63 µg/mL | Ratio (Escherichia coli [2]): 1 | Ratio [3]: 4 | MIC [4]: 0.12 µg/mL (≈ 0.141 µM) | MIC (Staphylococcus aureus [5]): 0.006 µg/mL (≈ 0.00703 µM) | MIC (Escherichia coli [6]): 0.24 µg/mL (≈ 0.281 µM) | Ratio (Escherichia coli [7]): 2 | MIC (Escherichia coli [8]): 4 µg/mL (≈ 4.69 µM) | MIC (Escherichia coli [9]): 8 µg/mL (≈ 9.38 µM) | MIC [10]: 0.5 µg/mL (≈ 0.586 µM) | MIC (Escherichia coli [11]): 0.24 µg/mL (≈ 0.281 µM)

CO[C@H]1/C=C/O[C@@]2(C)Oc3c(C)c(O)c4c(c3C2=O)C(=O)C(N2CCOCC2)=C(NC(=O)/C(C)=C\C=C\[C@H](C)[C@H](O)[C@@H](C)[C@@H](O)[C@@H](C)[C@H](OC(=O)N2CCOCC2)[C@@H]1C)C4=O
Ratio (Escherichia coli [2]): 1 | Ratio [3]: 2 | MIC [4]: 1 µg/mL (≈ 1.17 µM) | MIC (Staphylococcus aureus [5]): 0.03 µg/mL (≈ 0.0352 µM) | MIC (Escherichia coli [6]): 1 µg/mL (≈ 1.17 µM) | Ratio (Escherichia coli [7]): 2 | MIC (Escherichia coli [8]): 31 µg/mL (≈ 36.4 µM) | MIC (Escherichia coli [9]): 63 µg/mL (≈ 73.9 µM) | MIC [10]: 2 µg/mL (≈ 2.35 µM) | MIC (Escherichia coli [11]): 1 µg/mL (≈ 1.17 µM)

CO[C@H]1/C=C/O[C@@]2(C)Oc3c(C)c(O)c4c(c3C2=O)C(=O)C(N2CCOCC2)=C(NC(=O)/C(C)=C\C=C\[C@H](C)[C@H](O)[C@@H](C)[C@@H](O)[C@@H](C)[C@H](OC(=O)NCc2cc(-c3ccccn3)no2)[C@@H]1C)C4=O
MIC (Staphylococcus aureus [1]): > 63 µg/mL | Ratio [3]: 1 | MIC [4]: 0.5 µg/mL (≈ 0.532 µM) | MIC (Staphylococcus aureus [5]): 0.008 µg/mL (≈ 0.00851 µM) | MIC (Escherichia coli [6]): 2 µg/mL (≈ 2.13 µM) | Ratio (Escherichia coli [7]): 1 | MIC (Escherichia coli [8]): 4 µg/mL (≈ 4.26 µM) | MIC (Escherichia coli [9]): 4 µg/mL (≈ 4.26 µM) | MIC [10]: 0.5 µg/mL (≈ 0.532 µM) | MIC (Escherichia coli [11]): 2 µg/mL (≈ 2.13 µM)

CO[C@H]1/C=C/O[C@@]2(C)Oc3c(C)c(O)c4c(c3C2=O)C(=O)C(N2CCOCC2)=C(NC(=O)/C(C)=C\C=C\[C@H](C)[C@H](O)[C@@H](C)[C@@H](O)[C@@H](C)[C@H](OC(=O)NCc2cccc(Cl)c2)[C@@H]1C)C4=O
MIC (Staphylococcus aureus [1]): > 63 µg/mL | Ratio (Escherichia coli [2]): 2 | Ratio [3]: >4 | MIC [4]: ≤ 0.03 µg/mL | MIC (Staphylococcus aureus [5]): 0.008 µg/mL (≈ 0.00883 µM) | MIC (Escherichia coli [6]): 0.5 µg/mL (≈ 0.552 µM) | MIC (Escherichia coli [8]): > 250 µg/mL | MIC (Escherichia coli [9]): > 250 µg/mL | MIC [10]: 0.12 µg/mL (≈ 0.132 µM) | MIC (Escherichia coli [11]): 0.24 µg/mL (≈ 0.265 µM)

CO[C@H]1/C=C/O[C@@]2(C)Oc3c(C)c(O)c4c(O)c(c(/C=N/N5CCN(C)CC5)c(O)c4c3C2=O)NC(=O)/C(C)=C\C=C\[C@H](C)[C@H](O)[C@@H](C)[C@@H](O)[C@@H](C)[C@H](OC(C)=O)[C@@H]1C [RIFAMPIN]
MIC (Staphylococcus aureus [1]): > 63 µg/mL | Ratio (Escherichia coli [2]): 32 | Ratio [3]: 64 | MIC [4]: 0.5 µg/mL (≈ 0.608 µM) | MIC (Staphylococcus aureus [5]): 0.008 µg/mL (≈ 0.00972 µM) | MIC (Escherichia coli [6]): 8 µg/mL (≈ 9.72 µM) | Ratio (Escherichia coli [7]): >32 | MIC (Escherichia coli [8]): 8 µg/mL (≈ 9.72 µM) | MIC (Escherichia coli [9]): > 250 µg/mL | MIC [10]: 32 µg/mL (≈ 38.9 µM) | MIC (Escherichia coli [11]): 0.24 µg/mL (≈ 0.292 µM)
